From ChEMBL document CHEMBL3727355, “Chemokine receptor activity regulator” (2014)

Target: T1, C-C chemokine receptor type 10 (Homo sapiens) (UniProt P46092)
T1 sequence (whole entry): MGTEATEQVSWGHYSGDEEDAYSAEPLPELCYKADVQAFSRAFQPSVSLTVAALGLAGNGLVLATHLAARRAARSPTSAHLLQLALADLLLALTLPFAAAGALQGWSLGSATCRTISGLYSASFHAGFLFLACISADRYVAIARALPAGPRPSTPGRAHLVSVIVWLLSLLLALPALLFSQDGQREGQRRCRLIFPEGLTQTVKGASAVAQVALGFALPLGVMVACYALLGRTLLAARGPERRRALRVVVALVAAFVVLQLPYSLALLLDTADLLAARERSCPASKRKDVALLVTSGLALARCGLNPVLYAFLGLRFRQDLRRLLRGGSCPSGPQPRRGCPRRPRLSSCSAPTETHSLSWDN
Experiment: Antagonist activity against human CCR10 expressed in human KJMGER8 cells assessed as inhibition of human recombinant CTACK-induced increase in intracellular calcium level at 100 nmol/L pre-incubated for 30 mins before human recombinant CTACK stimulation for 5 mins by FLIPR assay
Assay type: functional, cell-based

Row | inhibition [%] | SMILES
1 | > 100 | Cc1ccc(Cl)c(Nc2c(C(=O)N3CCC(c4ccc(F)cc4)CC3)cnc3c(S(=O)(=O)NC(=O)NC4CC4(F)F)cnn23)c1 (stereo unspecified)
2 | 92 | CCNC(=O)NS(=O)(=O)c1cnn2c(Nc3ccc(F)cc3C)c(C(=O)N3CCC4(CC3)OCc3ccccc34)cnc12
3 | 88.8 | Cc1cc(F)ccc1Nc1c(C(=O)N2CCC(c3ccccc3)CC2)cnc2c(S(=O)(=O)NS(C)(=O)=O)cnn12
4 | > 100 | CCC(=O)NS(=O)(=O)c1cnn2c(Nc3cc(C(F)(F)F)ccc3Cl)c(C(=O)N3CCC(c4ccc(F)cc4)CC3)cnc12
5 | 96.7 | CCNC(=O)NS(=O)(=O)c1cnn2c(Nc3cc(Cl)ccc3Cl)c(C(=O)N3CCC(c4ccc(F)cc4)CC3)cnc12
6 | 28.9 | COCCNS(=O)(=O)c1cnn2c(Nc3ccccc3Cl)c(C(=O)N3CCC(c4ccc(F)cc4)CC3)cnc12
7 | 62.3 | Cc1ccc(Cl)c(Nc2c(C(=O)N3CCC4(CC3)OCc3ccccc34)cnc3c(S(=O)(=O)NC(=O)NC4CCOCC4)cnn23)c1
8 | > 100 | Cc1ccc(F)c(Nc2c(C(=O)N3CCC4(CC3)OCc3ccccc34)cnc3c(S(=O)(=O)NC(=O)NC4CC4(F)F)cnn23)c1 (stereo unspecified)
9 | > 100 | CONS(=O)(=O)c1cnn2c(Nc3cc(Cl)ccc3Cl)c(C(=O)N3CCC(c4ccc(F)cc4)CC3)cnc12
10 | > 100 | O=CNS(=O)(=O)c1cnn2c(Nc3cc(Cl)ccc3Cl)c(C(=O)N3CCC(c4ccc(F)cc4)CC3)cnc12
11 | > 100 | CCC(=O)NS(=O)(=O)c1cnn2c(Nc3ccc(C)cc3F)c(C(=O)N3CCC4(CC3)OCc3ccccc34)cnc12
12 | > 100 | CCNC(=O)NS(=O)(=O)c1cnn2c(Nc3ccc(C)cc3F)c(C(=O)N3CCC4(CC3)OCc3ccccc34)cnc12
13 | 81.8 | CCNC(=S)NS(=O)(=O)c1cnn2c(Nc3ccc(F)cc3C)c(C(=O)N3CCC(c4ccccc4)CC3)cnc12
14 | > 100 | CCC(=O)NS(=O)(=O)c1cnn2c(Nc3ccc(F)cc3Cl)c(C(=O)N3CCC4(CC3)OCc3ccccc34)cnc12
15 | > 100 | CCC(=O)NS(=O)(=O)c1cnn2c(Nc3cc(C)ccc3Cl)c(C(=O)N3CCC(c4ccc(F)cc4)CC3)cnc12
16 | 63.7 | Cc1cc(F)ccc1Nc1c(C(=O)N2CCC(c3ccccc3)CC2)cnc2c(S(=O)(=O)NC(=O)Nc3ccccc3)cnn12
17 | > 100 | Cc1ccc(Cl)c(Nc2c(C(=O)N3CCC(c4ccc(F)cc4)CC3)cnc3c(S(=O)(=O)NC(N)=O)cnn23)c1
18 | 68.9 | Cc1cc(F)ccc1Nc1c(C(=O)N2CCC(c3ccccc3)CC2)cnc2c(S(=O)(=O)/N=C/N(C)C)cnn12
19 | > 100 | Cc1cc(Nc2c(C(=O)N3CCC(c4ccc(F)cc4)CC3)cnc3c(S(=O)(=O)NC(=O)C4CC4)cnn23)c(Cl)cc1F
20 | > 100 | O=C(c1cnc2c(S(=O)(=O)Nc3cccnn3)cnn2c1Nc1cc(Cl)ccc1Cl)N1CCC(c2ccc(F)cc2)CC1
21 | 24.3 | CCNC(=O)NS(=O)(=O)c1cnn2c(Nc3cc(C)ccc3Cl)c(C(=O)N3CC4(C3)CN(c3ccc(F)cc3)C4)cnc12
22 | 97 | CCC(=O)NS(=O)(=O)c1cnn2c(Nc3ccc(Cl)cc3Cl)c(C(=O)N3CCC(c4ccc(F)cc4)CC3)cnc12
23 | > 100 | CCC(=O)NS(=O)(=O)c1cnn2c(Nc3cc(F)ccc3F)c(C(=O)N3CCC(c4ccc(F)cc4)CC3)cnc12
24 | > 100 | CCNC(=O)NS(=O)(=O)c1cnn2c(Nc3cc(C)ccc3Cl)c(C(=O)N3CCC(c4ccc(F)cc4)CC3)cnc12
25 | > 100 | CC(=O)NS(=O)(=O)c1cnn2c(Nc3cc(Cl)ccc3Cl)c(C(=O)N3CCC(c4ccc(F)cc4)CC3)cnc12
26 | > 100 | Cc1cc(F)ccc1Nc1c(C(=O)N2CCC(c3ccc(F)cc3)CC2)cnc2c(S(=O)(=O)NC3CC3)cnn12

Row | inhibition [%] | SMILES
27 | > 100 | O=C(NS(=O)(=O)c1cnn2c(Nc3cc(Cl)ccc3Cl)c(C(=O)N3CCC4(CC3)OCc3ccccc34)cnc12)C1CC1
28 | 99.6 | COC(=O)NS(=O)(=O)c1cnn2c(Nc3ccccc3Cl)c(C(=O)N3CCC(c4ccccc4)CC3)cnc12
29 | > 100 | Cc1cc(F)ccc1Nc1c(C(=O)N2CCC(c3ccc(F)cc3)CC2)cnc2c(S(=O)(=O)NCC(F)(F)F)cnn12
30 | 95.2 | CCNC(=O)NS(=O)(=O)c1cnn2c(Nc3cc(C)ccc3Cl)c(C(=O)N3CCC4(CC3)OCc3ccccc34)cnc12
31 | 95.1 | CCNC(=O)NS(=O)(=O)c1cnn2c(NCc3ccccc3)c(C(=O)N3CCC(c4ccccc4)CC3)cnc12
32 | 93.4 | Cc1cc(F)ccc1Nc1c(C(=O)N2CCC(c3ccccc3)CC2)cnc2c(S(=O)(=O)NC(=O)C3CC3)cnn12
33 | > 100 | CCNC(=O)NS(=O)(=O)c1cnn2c(Nc3cc(Cl)ccc3F)c(C(=O)N3CCC(c4ccc(F)cc4)CC3)cnc12
34 | 90.2 | CCC(=O)NS(=O)(=O)c1cnn2c(Nc3cc(C)ccc3Cl)c(C(=O)N3CC4(C3)CN(c3ccc(F)cc3)C4)cnc12
35 | 75.3 | Cc1ccc(Cl)c(Nc2c(C(=O)N3CCC4(CC3)OCc3ccccc34)cnc3c(S(=O)(=O)NC(=O)NCC(F)(F)F)cnn23)c1
36 | > 100 | CCNC(=O)NS(=O)(=O)c1cnn2c(Nc3cc(F)ccc3Cl)c(C(=O)N3CCC(c4ccc(F)cc4)CC3)cnc12
37 | 89.4 | O=C(NS(=O)(=O)c1cnn2c(NCc3ccccc3)c(C(=O)N3CCC(c4ccccc4)CC3)cnc12)C1CC1
38 | > 100 | CCNS(=O)(=O)c1cnn2c(Nc3ccc(Cl)cc3C)c(C(=O)N3CCC(c4ccc(F)cc4)CC3)cnc12
39 | > 100 | CCC(=O)NS(=O)(=O)c1cnn2c(Nc3cc(Cl)ccc3Cl)c(C(=O)N3CCC4(CC3)OCc3ccccc34)cnc12
40 | > 100 | CCNC(=O)NS(=O)(=O)c1cnn2c(Nc3ccc(Cl)cc3C)c(C(=O)N3CCC4(CC3)OCc3ccccc34)cnc12
41 | > 100 | O=C(NC1CC1)NS(=O)(=O)c1cnn2c(Nc3ccc(F)cc3Cl)c(C(=O)N3CCC(c4ccc(F)cc4)CC3)cnc12
42 | 90.7 | COC(=O)NS(=O)(=O)c1cnn2c(Nc3ccc(F)cc3C)c(C(=O)N3CCC(c4ccccc4)CC3)cnc12
43 | 98.3 | CCC(=O)NS(=O)(=O)c1cnn2c(Nc3ccc(C)cc3Cl)c(C(=O)N3CCC(c4ccc(F)cc4)CC3)cnc12
44 | > 100 | CC(=O)NS(=O)(=O)c1cnn2c(Nc3cc(C)ccc3Cl)c(C(=O)N3CCC4(CC3)OCc3ccccc34)cnc12
45 | > 100 | O=C(c1cnc2c(S(=O)(=O)Nc3nncs3)cnn2c1Nc1cc(Cl)ccc1Cl)N1CCC(c2ccc(F)cc2)CC1
46 | > 100 | CCNS(=O)(=O)c1cnn2c(Nc3ccc(F)cc3C)c(C(=O)N3CCC(c4ccc(F)cc4)CC3)cnc12
47 | > 100 | Cc1cc(F)ccc1Nc1c(C(=O)N2CCC(c3ccccc3)CC2)cnc2c(S(=O)(=O)NC(=O)C(F)(F)F)cnn12
48 | 80.3 | CCNS(=O)(=O)c1cnn2c(Nc3cc(C)ccc3Cl)c(C(=O)N3CCC4(CC3)OCc3ccccc34)cnc12
49 | > 100 | CC(=O)NS(=O)(=O)c1cnn2c(Nc3cc(F)ccc3F)c(C(=O)N3CCC(c4ccc(F)cc4)CC3)cnc12
50 | > 100 | CCNC(=O)NS(=O)(=O)c1cnn2c(Nc3ccccc3Cl)c(C(=O)N3CCC(c4ccc(F)cc4)CC3)cnc12
51 | > 100 | CC(=O)NS(=O)(=O)c1cnn2c(Nc3ccc(F)cc3C)c(C(=O)N3CCC(c4ccccc4)CC3)cnc12
